# Experimental data published in patent US11466054B2, “Inhibitors of metastasis” (BIOMARCK PHARMACEUTICALS LTD., priority 2013, dated 2022).
# Where no end group is shown, it is not given here.
# Experiments:
# PC-9 cells = assay: Orthotopic lung injection xenograph model, PC-9 cells in nude mice; type: in vivo; settings: 50 nmoles i.p. once every three days, 25 days
# Description: The metastatic activity of cancer cells in vivo after treatment with MANS peptide or BIO-11006 was assessed in the orthotopic lung injection xenograph model. After pretreatment with either PBS, or PBS+MANS, BIO-11006 (SEQ ID NO: 106), or the control RNS peptide at 100 μM for 4 hours, PC-9 cells were injected into the left lobe of the lung of nude mice. Seven days later, these mice were given systemic treatment with either PBS only (Con), RNS (additional control peptide), MANS or BIO-11006 at 50 nmoles per intraperitoneal injection once every three days. At 25 days (6 injections) post-seeding of these tumor cells, mice were sacrificed and the number of metastasized tumor nodules in the contralateral lung and other organs was counted.
# A549 cells = assay: Anti-metastatic efficacy in SCID mice given A549 cells via the tail vein; type: in vivo; settings: Day 53; for No. of metastatic nodules in lungs Mean ± SEM: aerosol 100 μM every other day for 7 weeks
# Description: Female NOD.CB17-Prkdc^scid/NCrHsd, Mus musculus mice (Harlan, The Netherlands), housed in individually ventilated cages, were randomized into six groups of eight mice each. A549 cells (2.5×10^6) were injected into the mice via the tail vein. The control group received aerosolized vehicle PBS; while the groups 2 and 3 received the aerosolized test compound BIO-11006 either from −1 day before the cancer cells injection (group 2) or from +3 days after the cancer cell injection (group 3) on every other day for 7 weeks via nebulizer (Aeroneb Lab). Groups 4 and 5 received the aerosolized test compound MANS peptide either from −1 day before the cancer cell line injection (group 4) or from +3 days after the cell line injection (group 5) on every other day for 7 weeks via a nebulizer (Aeroneb Lab). For aerosol delivery, solution of each test compound (100 μM) was prepared in PBS, pH 7.0. For each treatment, 5 mL of test compound solution was aerosolized over 30 minutes into a chamber containing four mice at a time. The mice were monitored for body weight every other day for 7 weeks.
# One group of mice (n=7) served as normal control. These were untreated naïve mice used to monitor the health status of mice during the study period. All animals from all groups were sacrificed on Day 53. FIG. 15 compares number of metastatic nodules in lungs after respective administration of BIO-11006 and MANS peptide on Day 53 following A549 cell injection. […] There were few focal tumor nodules in ⅞ of mice treated with BIO-11006 peptide starting at either Day −1 or Day +3 relative to A549 cell injection.
substance,measurement,setting,value
N-acetyl-GAQFSKTAAK (Ac-GAQFSKTAAK; listed as Homo sapiens) [BIO-11006],Metastases (affected mice/total mice) Diaphragm,PC-9 cells,0/2
same,Metastases (affected mice/total mice) Heart,PC-9 cells,0/2
same,Metastases (affected mice/total mice) Intestines,PC-9 cells,0/2
same,Metastases (affected mice/total mice) Spleen,PC-9 cells,0/2
same,No. of Metastatic Lung Tumors Mean ± SE (L't),PC-9 cells; left lung,0; 0
same,No. of Metastatic Lung Tumors Mean ± SE (R't),PC-9 cells; right lung,0; 0
same,Tumor Size (mm) Mean ± SE,"PC-9 cells; tumor at site of injection, cells pretreated 100 μM 4 hours",1.61 ± 0.37 mm
same,animals with few focal tumor nodules,A549 cells; +3 Day treatment group,Few focal tumor nodules in 7/8
same,distant metastasis,A549 cells; +3 Day treatment group,No distant metastasis
same,No. of metastatic nodules in lungs Mean ± SEM,A549 cells; +3 Day treatment group,21 ± 6
same,animals with few focal tumor nodules,A549 cells; −1 Day treatment group,Few focal tumor nodules in 7/8
same,distant metastasis,A549 cells; −1 Day treatment group,No distant metastasis
same,No. of metastatic nodules in lungs Mean ± SEM,A549 cells; −1 Day treatment group,34 ± 14
